Results on 30 molecules are retold here after patent US20140058103A1, “Inhibitors of PI3K-Delta and Methods of Their Use and Manufacture” (Exelixis, Inc., priority 2010, published 2014).

Sequence of PI3K delta (O00329 whole entry): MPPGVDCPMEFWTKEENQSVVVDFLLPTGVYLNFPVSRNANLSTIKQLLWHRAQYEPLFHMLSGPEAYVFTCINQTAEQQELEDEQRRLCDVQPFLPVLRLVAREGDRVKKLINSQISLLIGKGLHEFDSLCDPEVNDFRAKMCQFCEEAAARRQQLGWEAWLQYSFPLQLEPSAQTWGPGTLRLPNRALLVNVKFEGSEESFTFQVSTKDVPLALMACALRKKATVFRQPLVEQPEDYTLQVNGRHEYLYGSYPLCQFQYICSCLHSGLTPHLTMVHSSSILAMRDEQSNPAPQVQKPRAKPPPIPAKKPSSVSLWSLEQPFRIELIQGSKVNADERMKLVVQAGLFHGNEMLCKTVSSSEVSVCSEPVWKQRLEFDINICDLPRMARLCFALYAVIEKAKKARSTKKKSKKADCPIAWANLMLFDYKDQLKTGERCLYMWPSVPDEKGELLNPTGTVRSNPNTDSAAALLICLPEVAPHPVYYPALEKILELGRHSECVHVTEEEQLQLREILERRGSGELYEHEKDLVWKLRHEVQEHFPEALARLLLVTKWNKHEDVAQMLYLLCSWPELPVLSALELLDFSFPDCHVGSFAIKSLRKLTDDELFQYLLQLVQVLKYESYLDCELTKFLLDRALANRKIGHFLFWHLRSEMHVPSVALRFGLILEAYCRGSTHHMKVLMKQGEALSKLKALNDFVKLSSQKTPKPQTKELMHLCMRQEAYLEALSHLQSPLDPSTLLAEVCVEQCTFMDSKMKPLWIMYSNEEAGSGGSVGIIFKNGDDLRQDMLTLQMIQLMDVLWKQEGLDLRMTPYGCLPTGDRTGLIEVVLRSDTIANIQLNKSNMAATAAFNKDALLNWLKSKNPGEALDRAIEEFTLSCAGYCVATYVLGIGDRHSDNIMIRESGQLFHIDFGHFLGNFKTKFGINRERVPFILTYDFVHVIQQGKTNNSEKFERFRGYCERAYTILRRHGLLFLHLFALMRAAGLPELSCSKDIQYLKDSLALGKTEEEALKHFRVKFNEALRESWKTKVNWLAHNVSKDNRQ
Sequence of PI3K delta (P27986 whole entry partner): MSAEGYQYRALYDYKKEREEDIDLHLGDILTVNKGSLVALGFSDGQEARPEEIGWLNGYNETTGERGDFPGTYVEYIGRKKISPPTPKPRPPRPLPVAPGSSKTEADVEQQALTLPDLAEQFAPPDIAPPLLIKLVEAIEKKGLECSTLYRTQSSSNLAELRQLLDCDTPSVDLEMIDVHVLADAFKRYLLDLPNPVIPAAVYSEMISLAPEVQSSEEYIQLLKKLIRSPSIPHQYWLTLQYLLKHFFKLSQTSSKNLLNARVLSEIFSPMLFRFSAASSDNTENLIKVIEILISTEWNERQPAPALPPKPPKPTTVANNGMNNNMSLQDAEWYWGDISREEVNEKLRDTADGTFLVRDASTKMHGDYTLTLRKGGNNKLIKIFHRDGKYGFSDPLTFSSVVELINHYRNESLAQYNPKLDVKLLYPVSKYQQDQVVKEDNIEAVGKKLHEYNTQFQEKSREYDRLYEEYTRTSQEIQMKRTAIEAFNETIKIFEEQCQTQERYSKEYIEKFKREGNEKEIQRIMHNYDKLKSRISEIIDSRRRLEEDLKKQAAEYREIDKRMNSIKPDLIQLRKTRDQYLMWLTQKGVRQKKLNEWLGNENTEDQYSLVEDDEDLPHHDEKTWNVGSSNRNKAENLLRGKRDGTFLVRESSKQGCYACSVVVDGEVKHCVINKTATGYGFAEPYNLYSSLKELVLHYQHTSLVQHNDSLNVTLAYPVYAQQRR

The target of the test is PI3K delta (Homo sapiens, UniProt O00329). Briefly: Luciferase-coupled chemiluminescence kinase assay (ATP consumption, KinaseGlo). The test is classed as biochemical. As for the experimental part:
Kinase activity and compound inhibition were investigated using one or more of the assay formats described below. The ATP concentrations used in the various assays were approximately equal to or less than the KM for each of the respective kinases. Dose-response experiments were performed using an intra-plate dilution scheme with 10 different inhibitor concentrations in a 384-well microtiter plate. IC50 values were calculated by nonlinear regression analysis using the four-parameter equation listed below:
Y=min+(max−min)/(1+(X/IC50)^N) Equation 1
Typically N should approximate unity. Curve fitting was performed using XLFit or ActivityBase.
Kinase activity is measured as the percent of ATP consumed following the kinase reaction using luciferase-luciferin-coupled chemiluminescence. […] Kinase reactions were initiated by combining test compounds, kinase, and ATP in a 20 μL volume (6 μL volume for 1536-well plate). The reaction mixture was incubated at ambient temperature for 2 h. Following the kinase reaction, a 20 μL (or […] for 1536-well plate) aliquot of KinaseGlo (Promega) was added and the chemiluminescence signal measured using an EnVision plate reader (Perkin Elmer).
In general, IC50 refers to the concentration needed to halve the response being measured. Regarding `CCNC(=O)c1nc2c(N3CCC(n4c(=O)[nH]c5ccccc54)CC3)ncnc2n1C` [Compound 62, N-ethyl-9-methyl-6-[4-(2-oxo-2,3-dihydro-1H-benzimidazol-1-yl)piperidin-1-yl]-9H-purine-8-carboxamide], the IC50 was 50 to 250 nM.

`Cn1c(C(=O)NCCc2ccc(Cl)cc2)nc2c(N3CCC(n4c(=O)[nH]c5ccccc54)CC3)ncnc21` [Compound 63, N-[2-(4-chlorophenyl)ethyl]-9-methyl-6-[4-(2-oxo-2,3-dihydro-1H-benzimidazol-1-yl)piperidin-1-yl]-9H-purine-8-carboxamide] had an IC50 of 500 to 1500 nM.

Molecule `Cc1ccc(CCNC(=O)c2nc3c(N4CCC(n5c(=O)[nH]c6ccccc65)CC4)ncnc3n2C)cc1` [Compound 64, 9-methyl-N-[2-(4-methylphenyl)ethyl]-6-[4-(2-oxo-2,3-dihydro-1H-benzimidazol-1-yl)piperidin-1-yl]-9H-purine-8-carboxamide] gave an IC50 of 500 to 1500 nM.

Regarding `Cn1c(C(=O)NCCCc2ccccc2)nc2c(N3CCC(n4c(=O)[nH]c5ccccc54)CC3)ncnc21` [Compound 65, 9-methyl-6-[4-(2-oxo-2,3-dihydro-1H-benzimidazol-1-yl)piperidin-1-yl]-N-(3-phenylpropyl)-9H-purine-8-carboxamide], the IC50 was in the range of 500 to 1500 nM.

`Cn1c(C(=O)NCc2ccc(F)cc2F)nc2c(N3CCC(n4c(=O)[nH]c5ccccc54)CC3)ncnc21` [Compound 66, N-[(2,4-difluorophenyl)methyl]-9-methyl-6-[4-(2-oxo-2,3-dihydro-1H-benzimidazol-1-yl)piperidin-1-yl]-9H-purine-8-carboxamide] showed an IC50 of 500 to 1500 nM.

`CC(C)CNC(=O)c1nc2c(N3CCC(n4c(=O)[nH]c5ccccc54)CC3)ncnc2n1C` [Compound 67, 9-methyl-N-(2-methylpropyl)-6-[4-(2-oxo-2,3-dihydro-1H-benzimidazol-1-yl)piperidin-1-yl]-9H-purine-8-carboxamide]: the IC50 was below 50 nM.

As for `Cn1c(C(=O)N2CCCC2)nc2c(N3CCC(n4c(=O)[nH]c5ccccc54)CC3)ncnc21` [Compound 68, 1-{1-[9-methyl-8-(pyrrolidin-1-ylcarbonyl)-9H-purin-6-yl]piperidin-4-yl}-1,3-dihydro-2H-benzimidazol-2-one], the IC50 fell in the range of 250 to 500 nM.

`CCCNC(=O)c1nc2c(N3CCC(n4c(=O)[nH]c5ccccc54)CC3)ncnc2n1C` [Compound 69, 9-methyl-6-[4-(2-oxo-2,3-dihydro-1H-benzimidazol-1-yl)piperidin-1-yl]-N-propyl-9H-purine-8-carboxamide] displayed an IC50 of 50 to 250 nM.

Molecule `CCCCCNC(=O)c1nc2c(N3CCC(n4c(=O)[nH]c5ccccc54)CC3)ncnc2n1C` [Compound 70, 9-methyl-6-[4-(2-oxo-2,3-dihydro-1H-benzimidazol-1-yl)piperidin-1-yl]-N-pentyl-9H-purine-8-carboxamide] yielded an IC50 of 250 to 500 nM.

Consider `CCCCCCNC(=O)c1nc2c(N3CCC(n4c(=O)[nH]c5ccccc54)CC3)ncnc2n1C` [Compound 71, N-hexyl-9-methyl-6-[4-(2-oxo-2,3-dihydro-1H-benzimidazol-1-yl)piperidin-1-yl]-9H-purine-8-carboxamide], for which the IC50 fell in the range of 250 to 500 nM.

`CC(C)CCNC(=O)c1nc2c(N3CCC(n4c(=O)[nH]c5ccccc54)CC3)ncnc2n1C` [Compound 72, 9-methyl-N-(3-methylbutyl)-6-[4-(2-oxo-2,3-dihydro-1H-benzimidazol-1-yl)piperidin-1-yl]-9H-purine-8-carboxamide] gave an IC50 of 50 to 250 nM.

As to `Cn1c(C(=O)N2CCC(O)C2)nc2c(N3CCC(n4c(=O)[nH]c5ccccc54)CC3)ncnc21` (stereo not drawn) [Compound 73, 1-(1-[8-[(3-hydroxypyrrolidin-1-yl)carbonyl]-9-methyl-9H-purin-6-yl]piperidin-4-yl)-1,3-dihydro-2H-benzimidazol-2-one], the half-maximal inhibitory concentration (IC50) is 500 to 1500 nM.

Regarding `Cn1c(C(=O)N2CC(O)C2)nc2c(N3CCC(n4c(=O)[nH]c5ccccc54)CC3)ncnc21` [Compound 74, 1-(1-{8-[(3-hydroxyazetidin-1-yl)carbonyl]-9-methyl-9H-purin-6-yl}piperidin-4-yl)-1,3-dihydro-2H-benzimidazol-2-one], the IC50 lay in the range of 50 to 250 nM.

`Cn1c(C(=O)NC(C)(C)C)nc2c(N3CCC4(CC3)C(=O)Nc3ccccc34)ncnc21` [Compound 75, N-(1,1-dimethylethyl)-9-methyl-6-(2-oxo-1,2-dihydro-1′H-spiro[indole-3,4′-piperidin]-1′-yl)-9H-purine-8-carboxamide] had an IC50 of 50 to 250 nM.

On to `COC(=O)c1nc2c(N3CCC4(CC3)C(=O)Nc3ccccc34)ncnc2n1C` [Compound 76, Methyl 9-methyl-6-(2-oxo-1,2-dihydro-1′H-spiro[indole-3,4′-piperidin]-1′-yl)-9H-purine-8-carboxylate], for which the IC50 lay in the range of 500 to 1500 nM.

On to `Cn1c(C(=O)NCC2CCOCC2)nc2c(N3CCC4(CC3)C(=O)Nc3ccccc34)ncnc21` [Compound 77, 9-methyl-6-(2-oxo-1,2-dihydro-1′H-spiro[indole-3,4′-piperidin]-1′-yl)-N-(tetrahydro-2H-pyran-4-ylmethyl)-9H-purine-8-carboxamide], for which the IC50 lay within 50 to 250 nM.

`COC(=O)c1nc2c(N3CCC(n4c(=O)[nH]c5ccccc54)CC3)ncnc2n1C` [Compound 78, Methyl 9-methyl-6-[4-(2-oxo-2,3-dihydro-1H-benzimidazol-1-yl)piperidin-1-yl]-9H-purine-8-carboxylate] had an IC50 of 500 to 1500 nM.

In turn, `Cn1c(C(=O)OCC2CC2)nc2c(N3CCC(n4c(=O)[nH]c5ccccc54)CC3)ncnc21` [Compound 79, Cyclopropylmethyl 9-methyl-6-[4-(2-oxo-2,3-dihydro-1H-benzimidazol-1-yl)piperidin-1-yl]-9H-purine-8-carboxylate] displayed an IC50 of 50 to 250 nM.

In turn, `CCOC(=O)c1nc2c(N3CCC(n4c(=O)[nH]c5ccccc54)CC3)ncnc2n1C` [Compound 80, Ethyl 9-methyl-6-[4-(2-oxo-2,3-dihydro-1H-benzimidazol-1-yl)piperidin-1-yl]-9H-purine-8-carboxylate] registered an IC50 of 500 to 1500 nM.

The molecule `Cc1nc2c(N3CCC(n4c(=O)[nH]c5ccccc54)CC3)ncnc2n1C` [Compound 81, 1-[1-(8,9-Dimethyl-9H-purin-6-yl)piperidin-4-yl]-1,3-dihydro-2H-benzimidazol-2-one] displayed an IC50 of 500 to 1500 nM.

`Cn1c(C(=O)NCC2CCCCO2)nc2c(N3CCC4(CC3)C(=O)Nc3ccccc34)ncnc21` (stereo not drawn) [Compound 82, 9-methyl-6-(2-oxo-1,2-dihydro-1′H-spiro[indole-3,4′-piperidin]-1′-yl)-N-(tetrahydro-2H-pyran-2-ylmethyl)-9H-purine-8-carboxamide] registered an IC50 of 500 to 1500 nM.

The molecule `Cn1c(C(=O)NCC(C)(C)O)nc2c(N3CCC4(CC3)C(=O)Nc3ccccc34)ncnc21` [Compound 83, N-(2-hydroxy-2-methylpropyl)-9-methyl-6-(2-oxo-1,2-dihydro-1′H-spiro[indole-3,4′-piperidin]-1′-yl)-9H-purine-8-carboxamide] showed an IC50 of 50 to 250 nM.

In turn, `CC(NC(=O)c1nc2c(N3CCC4(CC3)C(=O)Nc3ccccc34)ncnc2n1C)C1CC1` (stereo not drawn) [Compound 84, N-(1-cyclopropylethyl)-9-methyl-6-(2-oxo-1,2-dihydro-1′H-spiro[indole-3,4′-piperidin]-1′-yl)-9H-purine-8-carboxamide] yielded an IC50 of 50 to 250 nM.

Take `Cn1c(C(=O)NCC2CCCO2)nc2c(N3CCC4(CC3)C(=O)Nc3ccccc34)ncnc21` (stereo not drawn) [Compound 85, 9-methyl-6-(2-oxo-1,2-dihydro-1′H-spiro[indole-3,4′-piperidin]-1′-yl)-N-(tetrahydrofuran-2-ylmethyl)-9H-purine-8-carboxamide]: the IC50 was 500 to 1500 nM.

`Cn1c(C(=O)NC2CCOCC2)nc2c(N3CCC4(CC3)C(=O)Nc3ccccc34)ncnc21` [Compound 86, 9-methyl-6-(2-oxo-1,2-dihydro-1′H-spiro[indole-3,4′-piperidin]-1′-yl)-N-(tetrahydro-2H-pyran-4-yl)-9H-purine-8-carboxamide] showed an IC50 of 50 to 250 nM.

In the case of `Cn1c(C(=O)N[C@H]2CC[C@H](O)CC2)nc2c(N3CCC4(CC3)C(=O)Nc3ccccc34)ncnc21` [Compound 87, N-(trans-4-hydroxycyclohexyl)-9-methyl-6-(2-oxo-1,2-dihydro-1′H-spiro[indole-3,4′-piperidin]-1′-yl)-9H-purine-8-carboxamide], the IC50 is below 50 nM.

`Cn1c(C(=O)NCC2CCCCC2)nc2c(N3CCC4(CC3)C(=O)Nc3ccccc34)ncnc21` [Compound 88, N-(cyclohexylmethyl)-9-methyl-6-(2-oxo-1,2-dihydro-1′H-spiro[indole-3,4′-piperidin]-1′-yl)-9H-purine-8-carboxamide]: the IC50 fell in the range of 500 to 1500 nM.

Molecule `Cn1c(C(=O)NCC2CCC2)nc2c(N3CCC4(CC3)C(=O)Nc3ccccc34)ncnc21` [Compound 89, N-(cyclobutylmethyl)-9-methyl-6-(2-oxo-1,2-dihydro-1′H-spiro[indole-3,4′-piperidin]-1′-yl)-9H-purine-8-carboxamide] gave an IC50 of 50 to 250 nM.

Regarding `Cn1c(C(=O)N2CCC2)nc2c(N3CCC4(CC3)C(=O)Nc3ccccc34)ncnc21` [Compound 90, 1′-[8-(azetidin-1-ylcarbonyl)-9-methyl-9H-purin-6-yl]spiro[indole-3,4′-piperidin]-2(1H)-one], the IC50 fell in the range of 250 to 500 nM.

In turn, `CNC(=O)c1nc2c(N3CCC(n4c(=O)[nH]c5ccccc54)CC3)ncnc2n1C` [Compound 91, N,9-dimethyl-6-[4-(2-oxo-2,3-dihydro-1H-benzimidazol-1-yl)piperidin-1-yl]-9H-purine-8-carboxamide] gave an IC50 of 500 to 1500 nM.
